In US10829473B2, “Modulators of the cystic fibrosis transmembrane conductance regulator protein and methods of use” (AbbVie Overseas S.Á.R.L., priority 2017, dated 2020):
Like-named read-outs stand apart in the source and are kept apart here. Marks after values point to notes of the source that are not given here.

Target: T1, F508delCFTR (Homo sapiens, UniProt P13569, DEL508-508)
T1 construct: expressed in transfected cells; host or cells: CFBE41o- human lung derived epithelial cells (CFBE41o-F508delCFTR-HRP), doxycycline-inducible
T1 sequence (P13569 with tags, fused parts or gaps DEL508-508): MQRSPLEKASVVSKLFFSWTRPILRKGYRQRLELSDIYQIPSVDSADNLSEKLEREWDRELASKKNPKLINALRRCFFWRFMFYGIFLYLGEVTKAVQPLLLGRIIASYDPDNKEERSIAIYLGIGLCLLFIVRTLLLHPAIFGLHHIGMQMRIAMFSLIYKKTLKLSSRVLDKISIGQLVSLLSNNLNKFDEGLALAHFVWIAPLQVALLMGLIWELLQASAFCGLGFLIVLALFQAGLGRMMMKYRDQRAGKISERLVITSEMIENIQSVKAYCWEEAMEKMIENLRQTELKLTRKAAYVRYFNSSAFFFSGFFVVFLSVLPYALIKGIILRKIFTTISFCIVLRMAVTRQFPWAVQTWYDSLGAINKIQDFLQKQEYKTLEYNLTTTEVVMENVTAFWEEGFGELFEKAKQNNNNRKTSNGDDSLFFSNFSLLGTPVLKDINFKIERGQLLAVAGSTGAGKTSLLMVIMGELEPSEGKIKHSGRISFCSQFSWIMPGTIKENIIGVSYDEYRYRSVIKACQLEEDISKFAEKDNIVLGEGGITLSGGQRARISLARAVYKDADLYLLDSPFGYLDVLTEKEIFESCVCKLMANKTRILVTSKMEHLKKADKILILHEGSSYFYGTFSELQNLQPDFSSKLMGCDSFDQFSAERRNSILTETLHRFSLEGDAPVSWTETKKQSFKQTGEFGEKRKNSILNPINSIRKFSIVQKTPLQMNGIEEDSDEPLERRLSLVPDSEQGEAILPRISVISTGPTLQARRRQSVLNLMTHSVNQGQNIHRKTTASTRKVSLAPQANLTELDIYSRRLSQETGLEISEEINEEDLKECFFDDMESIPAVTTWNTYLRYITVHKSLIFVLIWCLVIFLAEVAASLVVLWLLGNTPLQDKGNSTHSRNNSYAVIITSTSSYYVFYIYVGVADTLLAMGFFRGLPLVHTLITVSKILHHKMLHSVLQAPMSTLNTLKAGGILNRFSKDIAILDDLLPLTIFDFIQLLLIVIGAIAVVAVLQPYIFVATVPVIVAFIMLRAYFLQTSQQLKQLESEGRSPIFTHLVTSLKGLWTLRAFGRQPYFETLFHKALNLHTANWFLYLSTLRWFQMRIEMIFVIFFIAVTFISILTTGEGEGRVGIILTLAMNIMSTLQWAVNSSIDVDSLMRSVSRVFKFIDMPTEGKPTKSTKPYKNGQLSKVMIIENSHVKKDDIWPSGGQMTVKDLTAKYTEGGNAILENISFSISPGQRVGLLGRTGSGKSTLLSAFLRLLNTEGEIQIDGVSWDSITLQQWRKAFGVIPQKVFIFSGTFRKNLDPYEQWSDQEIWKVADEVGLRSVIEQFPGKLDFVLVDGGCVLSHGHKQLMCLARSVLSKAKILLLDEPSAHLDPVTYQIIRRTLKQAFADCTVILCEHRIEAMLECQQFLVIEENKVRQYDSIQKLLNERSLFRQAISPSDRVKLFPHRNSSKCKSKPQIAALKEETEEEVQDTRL
Assay: Cell Surface Expression-Horse Radish Peroxidase (CSE-HRP) Assay
Type: cell-based
Details: for Maximum % activity (with co-corrector) / Emax: maximum at any tested concentration; for Emax: read-out: Maximum % activity (without co-corrector)
How it was run: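 Corrector compounds were given as 8-point 3-fold series from 20 or 30 μM, with or without a 2 μM co-corrector, for 18-24 h at 33 °C. Surface HRP was read by luminol luminescence as % of positive control; variable-Hill-slope sigmoidal fitting gave EC50 from triplicate plates.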

[1] = test compound alone, without co-corrector, read-out: EC50 (without co-corrector)
[2] = with co-corrector, read-out: EC50 (with co-corrector)
[3] = test compound with co-corrector
[4] = test compound with co-corrector, read-out: EC50 (with co-corrector)
[5] = test compound without co-corrector
[6] = test compound without co-corrector, read-out: EC50 (without co-corrector)

EC50 [1] [µM]	Maximum % activity (with co-corrector) (with co-corrector)	EC50 [2] [µM]	Emax (without co-corrector) [%]	Maximum % activity (with co-corrector) [3]	EC50 [4] [µM]	Emax [5] [%]	EC50 [6] [µM]	EC50 (with co-corrector) [3]	EC50 (without co-corrector) [5]	Structure (SMILES)
3 to 10	+++ (≥350)	3 to 10	50 to 150							COc1ccc(C2COC2)cc1C1(C(=O)NS(=O)(=O)c2cccc3ncccc23)CC1 [Example I-90, 1-[2-methoxy-5-(oxetan-3-yl)phenyl]-N-(quinoline-5-sulfonyl)cyclopropane-1-carboxamide]
< 3	+++ (≥350)	< 3	> 150							CO[C@@H](C)COc1ccc(C)cc1C1(C(=O)NS(=O)(=O)c2cccc3ncccc23)CC1 [Example I-113, 1-{2-[(2S)-2-methoxypropoxy]-5-methylphenyl}-N-(quinoline-5-sulfonyl)cyclopropane-1-carboxamide]
< 3	+++ (≥350)	< 3	> 150							Cc1ccc(O[C@@H]2CCOC2)c(C2(C(=O)NS(=O)(=O)c3cccc4nc(C)ccc34)CC2)c1 [Example I-123, 1-(5-methyl-2-{[(3R)-oxolan-3-yl]oxy}phenyl)-N-(2-methylquinoline-5-sulfonyl)cyclopropane-1-carboxamide]
< 3	+++ (≥350)	< 3	> 150							COc1ccc(C2CC2)c(C)c1C1(C(=O)NS(=O)(=O)c2cccc3c2CCCN3)CC1 [II-37]
				+++ (≥350)	< 3	> 150	< 3			CCc1cnc(OC(C)C)c(C2(C(=O)NS(=O)(=O)c3cccc4[nH]ccc34)CC2)c1 [Example GI-41, 1-{5-ethyl-2-[(propan-2-yl)oxy]pyridin-3-yl}-N-(1H-indole-4-sulfonyl)cyclopropane-1-carboxamide]
< 3	+++ (≥350)	< 3	> 150							COc1ccc(C2CCCC2)cc1C1(C(=O)NS(=O)(=O)c2cccc3c2CCCN3)CCC1 [II-21]
				+++ (≥350)	3 to 10	> 150	3 to 10			CCc1cnc(N2CCC(COC)CC2)c(C2(C(=O)NS(=O)(=O)c3cccc4ncccc34)CC2)c1 [GII-59, 1-{5-ethyl-2-[4-(methoxymethyl)piperidin-1-yl]pyridin-3-yl}-N-(quinoline-5-sulfonyl)cyclopropane-1-carboxamide]
> 10	+ (<150)	< 3	< 50							O=C(O)c1ccc(Cl)cc1S(=O)(=O)NC(=O)C1(c2ccc(Cl)cc2Cl)CC1 [Example III-68, 4-chloro-2-{[l-(2,4-dichlorophenyl)cyclopropane-1-carbonyl]sulfamoyl}benzoic acid]
				+++ (≥350)	< 3	> 150	3 to 10			CCc1ccc(OC(C)C)c(C2(C(=O)NS(=O)(=O)c3cccc4[nH]ccc34)CC2)n1 [Example GI-56, 1-{6-ethyl-3-[(propan-2-yl)oxy]pyridin-2-yl}-N-(1H-indole-4-sulfonyl)cyclopropane-1-carboxamide]
< 3	+++ (≥350)	< 3	> 150							Cc1ccc2c(S(=O)(=O)NC(=O)C3(c4cc(N(C)C)cnc4OCC(C)C)CC3)cccc2n1 [Example I-109, 1-[5-(dimethylamino)-2-(2-methylpropoxy)pyridin-3-yl]-N-(2-methylquinoline-5-sulfonyl)cyclopropane-1-carboxamide]
< 3	+++ (≥350)	< 3	> 150							COc1ccc(C2CC2)c(C)c1C1(C(=O)NS(=O)(=O)c2cccc3[nH]ncc23)CC1 [II-78]
				+++ (≥350)	< 3	> 150	< 3			CC(C)OC1CCN(c2ncc(C3CCC3)cc2C2(C(=O)NS(=O)(=O)c3cccc4ncccc34)CC2)CC1 [Example GI-105, 1-(5-cyclobutyl-2-{4-[(propan-2-yl)oxy]piperidin-1-yl}pyridin-3-yl)-N-(quinoline-5-sulfonyl)cyclopropane-1-carboxamide]
				+++ (≥350)	< 3	> 150	< 3			COCC1CCN(c2ncc(C3CCC3)cc2C2(C(=O)NS(=O)(=O)c3cccc4ncccc34)CC2)CC1 [Example GI-121, 1-{5-cyclobutyl-2-[4-(methoxymethyl)piperidin-1-yl]pyridin-3-yl}-N-(quinoline-5-sulfonyl)cyclopropane-1-carboxamide]
< 3	+++ (≥350)	< 3	> 150							COc1ccc(C(F)(F)F)cc1C1(C(=O)NS(=O)(=O)c2cccc3ncccc23)CC1 [Example I-37, 1-[2-methoxy-5-(trifluoromethyl)phenyl]-N-(quinoline-5-sulfonyl)cyclopropane-1-carboxamide]
				+++ (≥350)	< 3	> 150	< 3			Cc1ccc(C2(C(=O)NS(=O)(=O)c3cccc4nc(C)ccc34)CC2)c(OC(C)C)n1 [Example GI-81, 1-{6-methyl-2-[(propan-2-yl)oxy]pyridin-3-yl}-N-(2-methylquinoline-5-sulfonyl)cyclopropane-1-carboxamide]
> 10	+ (<150)	> 10	< 50							O=C(NS(=O)(=O)Cc1ccccc1)C1(c2ccc(F)cc2)CC1 [Example III-112, 1-(4-fluorophenyl)-N-(phenylmethanesulfonyl)cyclopropane-1-carboxamide]
				++ (≥150 and <350)		50 to 150		++^a	++^a	COc1ccc(C2(C(=O)NS(=O)(=O)c3cccc4ncccc34)CC2)c(C)n1 [GIII-8]
< 3	+++ (≥350)	< 3	> 150							COc1ccc(C2CCC2)cc1C1(C(=O)NS(=O)(=O)c2cccc3nc(C)ccc23)CC1 [Example I-63, 1-(5-cyclobutyl-2-methoxyphenyl)-N-(2-methylquinoline-5-sulfonyl)cyclopropane-1-carboxamide]
				+++ (≥350)	< 3	> 150	3 to 10			Cc1ccc2c(S(=O)(=O)NC(=O)C3(c4cc(C5CC5)cnc4N4CCCC4)CC3)cccc2n1 [Example GI-33, 1-[5-cyclopropyl-2-(pyrrolidin-1-yl)pyridin-3-yl]-N-(2-methylquinoline-5-sulfonyl)cyclopropane-1-carboxamide]
< 3	+++ (≥350)	< 3	> 150							COc1ccc(C(C)(C)C)cc1C1(C(=O)NS(=O)(=O)c2cccc3ncccc23)CC1 [Example I-34, 1-(5-tert-butyl-2-methoxyphenyl)-N-(quinoline-5-sulfonyl)cyclopropane-1-carboxamide]
3 to 10	+++ (≥350)	< 3	> 150							CCCc1nc(C(F)(F)F)ccc1C1(C(=O)NS(=O)(=O)c2cccc3ncccc23)CC1 [Example GI-4, 1-[2-propyl-6-(trifluoromethyl)pyridin-3-yl]-N-(quinoline-5-sulfonyl)cyclopropane-1-carboxamide]
> 10	+ (<150)	> 10	< 50							COC(=O)c1ccc(S(=O)(=O)NC(=O)C2(c3ccc(Cl)cc3Cl)CC2)o1 [Example III-62, methyl 5-{[1-(2,4-dichlorophenyl)cyclopropane-1-carbonyl]ulfamoyl}furan-2-carboxylate]
	+++ (≥350)		> 150							COc1ccc(C2CC2)cc1C1(C(=O)NS(=O)(=O)c2cccc3nc(C)ccc23)CC1 [II-60]
3 to 10	+++ (≥350)	3 to 10	50 to 150							O=C(NS(=O)(=O)c1ccccc1)C1(c2cccc(Br)c2)CC1 [Example III-71, N-(benzenesulfonyl)-1-(3-bromophenyl)cyclopropane-1-carboxamide]
< 3	+++ (≥350)	< 3	> 150							Cc1ccc(OC(C)C)c(C2(C(=O)NS(=O)(=O)c3cccc4[nH]ncc34)CC2)c1 [II-75]
> 10	++ (≥150 and <350)	> 10	< 50							O=C(NS(=O)(=O)c1ccccc1)C1(c2ccc(Cl)c(Cl)c2)CC1 [Example III-34, N-(benzenesulfonyl)-1-(3,4-dichlorophenyl)cyclopropane-1-carboxamide]
< 3	+++ (≥350)	< 3	> 150							COc1cc(F)c(C(C)C)cc1C1(C(=O)NS(=O)(=O)c2cccc3ncccc23)CC1 [Example I-36, 1-[4-fluoro-2-methoxy-5-(propan-2-yl)phenyl]-N-(quinoline-5-sulfonyl)cyclopropane-1-carboxamide]
> 10	+ (<150)	> 10	< 50							COc1ccc(C2(C(=O)NS(=O)(=O)c3ccccc3)CC2)cc1 [Example III-5, N-(benzenesulfonyl)-1-(4-methoxyphenyl)cyclopropane-1-carboxamide]
